In patent US10500194B2, “Covalent small molecule DCN1 inhibitors and therapeutic methods using the same” (THE REGENTS OF THE UNIVERSITY OF MICHIGAN, priority 2017, dated 2019):

Molecular target: DCN1 (Homo sapiens (Human), UniProt Q96GG9)
Test: Competitive FP binding assay
Settings: read-out: Binding affinity to DCN1 (IC50)
Experimental: The Fluorescence Polarization (FP) competitive binding assays were performed to accurately determine the binding affinities of our DCN1 inhibitors. A novel FAM labeled fluorescent probe compound (46) was designed and synthesized based on one of our potent small molecule DCN1 inhibitors. Equilibrium dissociation constants (Kd) values of 46 to both DCN1 and DCN2 proteins were determined from protein saturation experiments by monitoring the total FP values of mixtures composed with the fluorescent probe at a fixed concentration and proteins with increasing concentrations up to full saturation. Serial dilutions of proteins were mixed with 46 to a final volume of 200 μl in the assay buffer (100 mM phosphate buffer, pH=6.5, with 0.02% Tween-20 and 2% DMSO). Final probe concentration was 5 nM for both assays. Plates were incubated at room temperature for 30 minutes with gentle shaking to assure equilibrium. FP values in millipolarization units (mP) were measured using the Infinite M-1000 plate reader (Tecan U.S., Research Triangle Park, N.C.) in Microfluor 1 96-well, black, round-bottom plates (Thermo Scientific, Waltham, Mass.) at an excitation wavelength of 485 nm and an emission wavelength of 530 nm. Kd values of 46 were calculated by fitting the sigmoidal dose-dependent FP increases as a function of protein concentrations using Graphpad Prism 6.0 software (Graphpad Software, San Diego, Calif.).
Human DCN1 (residues 58-259) were cloned into a pDEST17 plasmid containing an N-terminal His6 tag. DCN2 (residues 62-259), DCN3 (residues 86-304), DCN4 (residues 102-292) and DCN5 (residues 47-237) were cloned into an N-terminal His6-TEV expression vector. Pure proteins were derived from the same expression and purification protocols. Plasmids were transformed into Rosetta2 cells, the cells were grown in Terrific Broth at 37° C. to an O.D.600>1.0 and induced with 0.4 mM Isopropyl β-D-1-thiogalactopyranoside overnight at 20° C. The pelleted cells were resuspended in lysis buffer containing 25 mM Tris-HCl, pH 7.5, 200 mM NaCl and protease inhibitors, sonicated and centrifuged at 34,000×g for 45 minutes to remove debris. Cleared lysate was incubated with Ni-NTA resin (Qiagen) prewashed with lysis buffer, for 1 hr at 4° C. The matrix was loaded into a column then washed with 25 mM Tris-HCl, pH 7.5, 200 mM NaCl and 10 mM imidazole. Protein was eluted with 25 mM Tris-HCl, pH 7.5, 200 mM NaCl and 300 mM imidazole, concentrated and applied to a Superdex 75 (GE Healthcare) column pre-equilibrated with 25 mM Tris pH 7.5, 200 mM NaCl and 1 mM DTT. For DCN2-5, the N-terminal His6 tag was removed prior to gel filtration. Tag removal was achieved through incubation with TEV protease during overnight dialysis against 25 mM Tris pH 7.5, 200 mM NaCl and 1 mM DTT and a second Ni-NTA column. DCN2-5 proteins were stored at −80° C. in 1 mg/mL fractions containing 5% glycerol. The uncleaved DCN1 protein was stored at −80° C. without glycerol.

DCN1, sequence (Q96GG9 58-259): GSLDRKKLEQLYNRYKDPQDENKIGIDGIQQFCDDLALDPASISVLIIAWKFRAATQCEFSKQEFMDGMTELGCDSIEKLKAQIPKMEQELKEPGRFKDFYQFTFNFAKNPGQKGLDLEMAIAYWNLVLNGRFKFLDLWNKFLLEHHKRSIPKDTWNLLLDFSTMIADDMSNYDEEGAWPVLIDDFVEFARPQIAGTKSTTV

| SMILES | IC50 [µM] |
| --- | --- |
| C=CC(=O)NC[C@H](Cc1ccccc1)NC(=O)[C@H](Cc1nc2ccc(Cl)cc2s1)NC(=O)CC [Example 1, N—((S)-2-((S)-3-(6-chlorobenzo[d]thiazol-2-yl)-2-propionamidopropanamido)-3-phenylpropyl)acrylamide] | 0.205 |
| CCC(=O)N[C@@H](Cc1nc2ccc(Cl)cc2s1)C(=O)N[C@H](CNC(=O)/C=C/CN(C)C)Cc1ccccc1 [Example 2, (E)-N—((S)-2-((S)-3-(6-chlorobenzo[d]thiazol-2-yl)-2-propionamidopropanamido)-3-phenylpropyl)-4-(dimethylamino)but-2-enamide] | 0.153 |
| C=C(CN1CCOCC1)C(=O)NC[C@H](Cc1ccccc1)NC(=O)[C@H](Cc1nc2ccc(Cl)cc2s1)NC(=O)CC [Example 3, N—((S)-2-((S)-3-(6-chlorobenzo[d]thiazol-2-yl)-2-propionamidopropanamido)-3-phenylpropyl)-2-(morpholinomethyl)acrylamide] | 0.156 |
| C=C(CN1CCOCC1)C(=O)NC[C@H](CC1CCCCC1)NC(=O)[C@H](Cc1nc2ccc(Cl)cc2s1)NC(=O)CC [Example 5, N—((S)-2-((S)-3-(6-chlorobenzo[d]thiazol-2-yl)-2-propionamidopropanamido)-3-cyclohexylpropyl)-2-(morpholinomethyl)acrylamide] | 0.0807 |
| C=C(CN1CCOCC1)C(=O)NC[C@@H](NC(=O)[C@H](Cc1nc2ccc(Cl)cc2s1)NC(=O)CC)C1CCCC1 [Example 6, N—((S)-2-((S)-3-(6-chlorobenzo[d]thiazol-2-yl)-2-propionamidopropanamido)-2-cyclopentylethyl)-2-(morpholinomethyl)acrylamide] | 0.135 |
| C=C(CN1CCOCC1)C(=O)NC[C@H](Cc1ccccc1)NC(=O)[C@H](Cc1nc2ccc(CC)cc2s1)NC(=O)CC [Example 8, N—((S)-2-((S)-3-(6-ethylbenzo[d]thiazol-2-yl)-2-propionamidopropanamido)-3-phenylpropyl)-2-(morpholinomethyl)acrylamide] | 0.0998 |
| CCC(=O)N[C@@H](Cc1nc2ccc(Cl)cc2s1)C(=O)N[C@H](CNC(=O)C1=CCCN(C)C1)Cc1ccccc1 [Example 12, N—((S)-2-((S)-3-(6-chlorobenzo[d]thiazol-2-yl)-2-propionamidopropanamido)-3-phenylpropyl)-1-methyl-1,2,5,6-tetrahydropyridine-3-carboxamide] | 0.292 |
| CCC(=O)N[C@@H](Cc1nc2ccc(Cl)cc2s1)C(=O)N[C@H](CNC(=O)CCl)Cc1ccccc1 [Example 20, (S)—N—((S)-1-(2-chloroacetamido)-3-phenylpropan-2-yl)-3-(6-chlorobenzo[d]thiazol-2-yl)-2-propionamidopropanamide] | 0.36 |
| C=C(CN1CCCCC1)C(=O)NC[C@@H](NC(=O)[C@H](Cc1nc2ccc(C(C)C)cc2s1)NC(=O)CC)C1CCCCC1 [Example 23, N—((S)-2-cyclohexyl-2-((S)-3-(6-isopropylbenzo[d]thiazol-2-yl)-2-propionamidopropanamido)ethyl)-2-(piperidin-1-ylmethyl)acrylamide] | < 0.15 |
| C=C(Cn1ccnc1)C(=O)NC[C@@H](NC(=O)[C@H](Cc1nc2ccc(C(C)C)cc2s1)NC(=O)CC)C1CCCCC1 [Example 24, 2-((1H-imidazol-1-yl)methyl)-N—((S)-2-cyclohexyl-2-((S)-3-(6-isopropylbenzo[d]thiazol-2-yl)-2-propionamidopropanamido)ethyl)acrylamide] | < 0.15 |
| C=C(CN1CCC1)C(=O)NC[C@@H](NC(=O)[C@H](Cc1nc2ccc(C(C)C)cc2s1)NC(=O)CC)C1CCCCC1 [Example 25, 2-(azetidin-1-ylmethyl)-N—((S)-2-cyclohexyl-2-((S)-3-(6-isopropylbenzo[d]thiazol-2-yl)-2-propionamidopropanamido)ethyl)acrylamide] | < 0.15 |
| C=C(CN1CC(F)(F)C1)C(=O)NC[C@@H](NC(=O)[C@H](Cc1nc2ccc(C(C)C)cc2s1)NC(=O)CC)C1CCCCC1 [Example 26, N—((S)-2-cyclohexyl-2-((S)-3-(6-isopropylbenzo[d]thiazol-2-yl)-2-propionamidopropanamido)ethyl)-2-((3,3-difluoroazetidin-1-yl)methyl)acrylamide] | < 0.15 |
| C=C(CN1CCN(C)CC1)C(=O)NC[C@@H](NC(=O)[C@H](Cc1nc2ccc(C(C)C)cc2s1)NC(=O)CC)C1CCCCC1 [Example 27, N—((S)-2-cyclohexyl-2-((S)-3-(6-isopropylbenzo[d]thiazol-2-yl)-2-propionamidopropanamido)ethyl)-2-((4-methylpiperazin-1-yl)methyl)acrylamide] | < 0.15 |
| C=C(CN1CCS(=O)(=O)CC1)C(=O)NC[C@@H](NC(=O)[C@H](Cc1nc2ccc(C(C)C)cc2s1)NC(=O)CC)C1CCCCC1 [Example 28, N—((S)-2-cyclohexyl-2-((S)-3-(6-isopropylbenzo[d]thiazol-2-yl)-2-propionamidopropanamido)ethyl)-2-((1,1-dioxidothiomorpholino)methyl)acrylamide] | < 0.15 |
| C=C(CN1CCN(CCO)CC1)C(=O)NC[C@@H](NC(=O)[C@H](Cc1nc2ccc(C(C)C)cc2s1)NC(=O)CC)C1CCCCC1 [Example 29, N—((S)-2-cyclohexyl-2-((S)-3-(6-isopropylbenzo[d]thiazol-2-yl)-2-propionamidopropanamido)ethyl)-2-((4-(2-hydroxyethyl)piperazin-1-yl)methyl)acrylamide] | < 0.15 |
| C=C(CN1CCC(F)(F)CC1)C(=O)NC[C@@H](NC(=O)[C@H](Cc1nc2ccc(C(C)C)cc2s1)NC(=O)CC)C1CCCCC1 [Example 30, N—((S)-2-cyclohexyl-2-((S)-3-(6-isopropylbenzo[d]thiazol-2-yl)-2-propionamidopropanamido)ethyl)-2-((4,4-difluoropiperidin-1-yl)methyl)acrylamide] | < 0.15 |
| C=CC(=O)NC[C@H](Cc1ccncc1)NC(=O)[C@H](Cc1nc2ccc(C(C)C)cc2s1)NC(=O)CC [Example 31, N—((S)-2-((S)-3-(6-isopropylbenzo[d]thiazol-2-yl)-2-propionamidopropanamido)-3-(pyridin-4-yl)propyl)acrylamide] | < 0.15 |
| C=CC(=O)NC[C@H](Cc1cccnc1)NC(=O)[C@H](Cc1nc2ccc(C(C)C)cc2s1)NC(=O)CC [Example 32, N—((S)-2-((S)-3-(6-isopropylbenzo[d]thiazol-2-yl)-2-propionamidopropanamido)-3-(pyridin-3-yl)propyl)acrylamide] | < 0.15 |
| C=CS(=O)(=O)NC[C@H](Cc1cccnc1)NC(=O)[C@H](Cc1nc2ccc(C(C)C)cc2s1)NC(=O)CC [Example 33, (S)-3-(6-isopropylbenzo[d]thiazol-2-yl)-2-propionamido-N—((S)-1-(pyridin-3-yl)-3-(vinylsulfonamido)propan-2-yl)propanamide] | < 0.15 |
| C=C(CN1CCOCC1)C(=O)NC[C@H](Cc1cccnc1)NC(=O)[C@H](Cc1nc2ccc(C(C)C)cc2s1)NC(=O)CC [Example 34, N—((S)-2-((S)-3-(6-isopropylbenzo[d]thiazol-2-yl)-2-propionamidopropanamido)-3-(pyridin-3-yl)propyl)-2-(morpholinomethyl)acrylamide] | < 0.15 |
| C=C(CN1CCOCC1)C(=O)NC[C@H](Cc1ccccc1)NC(=O)[C@H](Cc1cn2cc(Cl)ccc2n1)NC(=O)CC [Example 35, N—((S)-2-((S)-3-(6-chloroimidazo[1,2-a]pyridin-2-yl)-2-propionamidopropanamido)-3-phenylpropyl)-2-(morpholinomethyl)acrylamide] | < 0.3 |
| C=C(CN1CCOCC1)C(=O)NC[C@H](Cc1ccc(F)cc1)NC(=O)[C@H](Cc1nc2ccc(C(C)C)cc2s1)NC(=O)CC [Example 36, N—((S)-3-(4-fluorophenyl)-2-((S)-3-(6-isopropylbenzo[d]thiazol-2-yl)-2-propionamidopropanamido)propyl)-2-(morpholinomethyl)acrylamide] | < 0.15 |
| C=CC(=O)NC[C@@H](NC(=O)[C@H](Cc1nc2ccc(C(C)C)cc2s1)NC(=O)CC)C1CCCCC1 [Example 37, N—((S)-2-cyclohexyl-2-((S)-3-(6-isopropylbenzo[d]thiazol-2-yl)-2-propionamidopropanamido)ethyl)acrylamide] | < 0.2 |
